Experimental data reported in ChEMBL document CHEMBL4334464, “From Phenylthiazoles to Phenylpyrazoles: Broadening the Antibacterial Spectrum toward Carbapenem-Resistant Bacteria” (J Med Chem, 2019).
Values after ≈ are worked out from the molar mass of the structure shown. Active and inactive are the calls of the source. The calls are words filed in the database; no cut-off is given here.

Assays:
Escherichia coli [1] = assay: Antimicrobial activity against Escherichia coli JW55031 harboring deltatolC mutant after 18 to 20 hrs in aerobic condition by CLSI protocol based broth microdilution assay; type: functional
Staphylococcus aureus [2] = assay: Antibacterial activity against Methicillin-sensitive Staphylococcus aureus NRS107 clinical isolates after 18 to 20 hrs in aerobic condition by CLSI protocol based broth microdilution assay; type: functional
Staphylococcus aureus [3] = assay: Antibacterial activity against linezolid-resistant/Methicillin-resistant Staphylococcus aureus NRS119 clinical isolates after 18 to 20 hrs in aerobic condition by CLSI protocol based broth microdilution assay; type: functional
Staphylococcus aureus [4] = assay: Antibacterial activity against Methicillin-resistant Staphylococcus aureus NRS123-USA400 clinical isolates after 18 to 20 hrs in aerobic condition by CLSI protocol based broth microdilution assay; type: functional
Staphylococcus aureus [5] = assay: Antibacterial activity against vancomycin-resistant Staphylococcus aureus isolate 10 after 18 to 20 hrs in aerobic condition by CLSI-based broth microdilution assay; type: functional
Staphylococcus aureus [6] = assay: Antibacterial activity against vancomycin-resistant Staphylococcus aureus isolate 12 after 18 to 20 hrs in aerobic condition by CLSI-based broth microdilution assay; type: functional
Staphylococcus aureus [7] = assay: Bactericidal activity against methicillin-resistant Staphylococcus aureus NRS123-USA400 clinical isolates at 5 times MIC incubated over 24 hrs followed by replating on tryptic soy agar plate and further incubated for 18 to 20 hrs by time kill assay; type: functional, organism-based
Enterococcus faecium [8] = assay: Antibacterial activity against vancomycin-resistant Enterococcus faecium ATCC 700221 clinical isolates after 18 to 20 hrs in aerobic condition by CLSI-based broth microdilution assay; type: functional
Streptococcus pneumoniae = assay: Antibacterial activity against methicillin-resistant Streptococcus pneumoniae ATCC 700677 clinical isolates after 18 to 20 hrs by CLSI-based broth microdilution assay; type: functional
Clostridioides difficile [9] = assay: Antibacterial activity against Clostridium difficile ATCC BAA 1870 incubated for 48 hrs in anaerobic condition by CLSI-based broth microdilution assay; type: functional; settings: ATCC BAA 1870, 48 h
Acinetobacter baumannii [10] = assay: Antibacterial activity against Acinetobacter baumannii ATCC BAA 1141 clinical isolates after 18 to 20 hrs in aerobic condition by CLSI-based broth microdilution assay; type: functional
Acinetobacter baumannii [11] = assay: Antibacterial activity against Acinetobacter baumannii NR 17786 clinical isolates after 18 to 20 hrs in aerobic condition by CLSI-based broth microdilution assay; type: functional
Acinetobacter baumannii [12] = assay: Antibacterial activity against Acinetobacter baumannii NR 17785 clinical isolates after 18 to 20 hrs in aerobic condition by CLSI-based broth microdilution assay; type: functional
Klebsiella pneumoniae [13] = assay: Antibacterial activity against Klebsiella pneumoniae BAA-1706 clinical isolates after 18 to 20 hrs in aerobic condition by CLSI-based broth microdilution assay; type: functional
Klebsiella pneumoniae [14] = assay: Antibacterial activity against Klebsiella pneumoniae BAA-1144 clinical isolates after 18 to 20 hrs in aerobic condition by CLSI-based broth microdilution assay; type: functional
Salmonella enteritidis [15] = assay: Antibacterial activity against Salmonella enteritidis ATCC 13076 clinical isolates after 18 to 20 hrs in aerobic condition by CLSI-based broth microdilution assay; type: functional, Salmonella enterica subsp. enterica serovar Enteritidis; settings: Salmonella enterica
Salmonella enteritidis [16] = assay: Antibacterial activity against Salmonella enteritidis ATCC 14028 clinical isolates after 18 to 20 hrs in aerobic condition by CLSI-based broth microdilution assay; type: functional, Salmonella enterica subsp. enterica serovar Enteritidis; settings: Salmonella enterica
Shigella flexneri [17] = assay: Antibacterial activity against Shigella flexneri ATCC 9199 clinical isolates after 18 to 20 hrs in aerobic condition by CLSI-based broth microdilution assay; type: functional
Pseudomonas aeruginosa [18] = assay: Antibacterial activity against Pseudomonas aeruginosa ATCC 15442 clinical isolates after 18 to 20 hrs in aerobic condition by CLSI-based broth microdilution assay; type: functional
Escherichia coli [19] = assay: Antibacterial activity against carbapenem-resistant Escherichia coli BAA-2452 clinical isolates after 18 to 20 hrs in aerobic condition by CLSI-based broth microdilution assay; type: functional
Escherichia coli [20] = assay: Antibacterial activity against carbapenem-resistant Escherichia coli BAA-2469 clinical isolates after 18 to 20 hrs in aerobic condition by CLSI-based broth microdilution assay; type: functional
Klebsiella pneumoniae [21] = assay: Antibacterial activity against carbapenem-resistant Klebsiella pneumoniae ATCC BAA-1705 clinical isolates after 18 to 20 hrs in aerobic condition by CLSI-based broth microdilution assay; type: functional
Klebsiella pneumoniae [22] = assay: Antibacterial activity against carbapenem-resistant Klebsiella pneumoniae ATCC BAA-2146 clinical isolates after 18 to 20 hrs in aerobic condition by CLSI-based broth microdilution assay; type: functional
Pseudomonas aeruginosa [23] = assay: Antibacterial activity against carbapenem-resistant Pseudomonas aeruginosa ATCC 1744 clinical isolates after 18 to 20 hrs in aerobic condition by CLSI-based broth microdilution assay; type: functional
Staphylococcus aureus [24] = assay: Ratio of MBC to MIC for Methicillin-sensitive Staphylococcus aureus ATCC 6538 clinical isolates; type: functional
Staphylococcus aureus [25] = assay: Ratio of MBC to MIC for Methicillin-sensitive Staphylococcus aureus NRS107 clinical isolates; type: functional
Enterococcus faecium [26] = assay: Ratio of MBC to MIC for vancomycin-resistant Enterococcus faecium ATCC 700221 clinical isolates; type: functional
Acinetobacter baumannii [27] = assay: Ratio of MBC to MIC for Acinetobacter baumannii ATCC 19606 clinical isolates; type: functional, ATCC 19606 = CIP 70.34 = JCM 6841
Acinetobacter baumannii [28] = assay: Ratio of MBC to MIC for Acinetobacter baumannii ATCC BAA 1141 clinical isolates; type: functional
Acinetobacter baumannii [29] = assay: Ratio of MBC to MIC for Acinetobacter baumannii ATCC BAA 1747 clinical isolates; type: functional
Acinetobacter baumannii [30] = assay: Ratio of MBC to MIC for Acinetobacter baumannii NR 17785 clinical isolates; type: functional
Escherichia coli [31] = assay: Ratio of MBC to MIC for Escherichia coli BW25113 clinical isolates; type: functional
[32] = test system: Enterobacter cloacae subsp. cloacae; assay: Ratio of MBC to MIC for Enterobacter cloacae subsp. cloacae ATCC BAA-1143 clinical isolates; type: functional
Klebsiella pneumoniae [33] = assay: Ratio of MBC to MIC for Klebsiella pneumoniae BAA-1706 after 18 to 20 hrs in aerobic condition by CLSI-based broth microdilution assay; type: functional
Salmonella enteritidis [34] = assay: Ratio of MBC to MIC for Salmonella enteritidis ATCC 13076 clinical isolates; type: functional, Salmonella enterica subsp. enterica serovar Enteritidis
Salmonella enteritidis [35] = assay: Ratio of MBC to MIC for Salmonella enteritidis ATCC 14028 clinical isolates; type: functional, Salmonella enterica subsp. enterica serovar Enteritidis
Salmonella typhimurium = assay: Ratio of MBC to MIC for Salmonella typhimurium ATCC 700720 clinical isolates; type: functional, Salmonella enterica subsp. enterica serovar Typhimurium
Shigella flexneri [36] = assay: Ratio of MBC to MIC for Shigella flexneri ATCC 9199 clinical isolates; type: functional
Pseudomonas aeruginosa [37] = assay: Ratio of MBC to MIC for Pseudomonas aeruginosa ATCC 9027 clinical isolates; type: functional
Pseudomonas aeruginosa [38] = assay: Ratio of MBC to MIC for Pseudomonas aeruginosa ATCC 25619 clinical isolates; type: functional
Pseudomonas aeruginosa [39] = assay: Ratio of MBC to MIC for Pseudomonas aeruginosa ATCC 15442 clinical isolates; type: functional
Clostridioides difficile [40] = assay: Ratio of MBC to MIC for Clostridium difficile ATCC BAA 1870; type: functional
Acinetobacter baumannii [41] = assay: microbe, parasite or virus in culture; settings: ATCC BAA 1747
Description: Antibacterial activity against Acinetobacter baumannii ATCC BAA 1747 after 18 to 20 hrs in aerobic condition by CLSI-based broth microdilution assay

Escherichia coli [42] = assay: microbe, parasite or virus in culture; settings: ATCC 1411
Description: Antibacterial activity against Escherichia coli ATCC 1411 clinical isolates after 18 to 20 hrs in aerobic condition by CLSI-based broth microdilution assay

Pseudomonas aeruginosa [43] = assay: microbe, parasite or virus in culture; settings: ATCC 25619
Description: Antibacterial activity against Pseudomonas aeruginosa ATCC 25619 clinical isolates after 18 to 20 hrs in aerobic condition by CLSI-based broth microdilution assay

**Q.** With `CCCC#Cc1ccc(-n2ncc(/C(C)=N/NC(=N)N)c2C)cc1` as the molecule, how does the MIC (Escherichia coli [1]) read?
**A.** 4 µg/mL (≈ 12.4 µM)

**Q.** What about the MIC (Staphylococcus aureus [2]) of the same molecule?
**A.** 4 µg/mL (≈ 12.4 µM)

**Q.** And the MIC (Staphylococcus aureus [3])?
**A.** 2 µg/mL (≈ 6.2 µM)

**Q.** What about the MIC (Staphylococcus aureus [4]) of the same molecule?
**A.** 2 µg/mL (≈ 6.2 µM)

**Q.** And the MIC (Staphylococcus aureus [5])?
**A.** 2 µg/mL (≈ 6.2 µM)

**Q.** And the MIC (Staphylococcus aureus [6])?
**A.** 2 µg/mL (≈ 6.2 µM)

**Q.** And the Activity (Staphylococcus aureus [7])?
**A.** Active

**Q.** What about the MIC (Enterococcus faecium [8]) of the same molecule?
**A.** 4 µg/mL (≈ 12.4 µM)

**Q.** What about the MIC (Streptococcus pneumoniae) of the same molecule?
**A.** 4 µg/mL (≈ 12.4 µM)

**Q.** And the MIC (Clostridioides difficile [9])?
**A.** 8 µg/mL (≈ 24.8 µM)

**Q.** And the MIC (Acinetobacter baumannii [10])?
**A.** 8 µg/mL (≈ 24.8 µM)

**Q.** And the MIC (Acinetobacter baumannii [11])?
**A.** 16 µg/mL (≈ 49.6 µM)

**Q.** What about the MIC (Acinetobacter baumannii [12]) of the same molecule?
**A.** 8 µg/mL (≈ 24.8 µM)

**Q.** What about the MIC (Klebsiella pneumoniae [13]) of the same molecule?
**A.** 8 µg/mL (≈ 24.8 µM)

**Q.** And the MIC (Klebsiella pneumoniae [14])?
**A.** 16 µg/mL (≈ 49.6 µM)

**Q.** What about the MIC (Salmonella enteritidis [15]) of the same molecule?
**A.** 16 µg/mL (≈ 49.6 µM)

**Q.** And the MIC (Salmonella enteritidis [16])?
**A.** 16 µg/mL (≈ 49.6 µM)

**Q.** And the MIC (Shigella flexneri [17])?
**A.** 16 µg/mL (≈ 49.6 µM)

**Q.** What about the MIC (Pseudomonas aeruginosa [18]) of the same molecule?
**A.** 16 µg/mL (≈ 49.6 µM)

**Q.** And the MIC (Escherichia coli [19])?
**A.** 32 µg/mL (≈ 99.3 µM)

**Q.** What about the MIC (Escherichia coli [20]) of the same molecule?
**A.** 32 µg/mL (≈ 99.3 µM)

**Q.** And the MIC (Klebsiella pneumoniae [21])?
**A.** 16 µg/mL (≈ 49.6 µM)

**Q.** And the MIC (Klebsiella pneumoniae [22])?
**A.** 32 µg/mL (≈ 99.3 µM)

**Q.** What about the MIC (Pseudomonas aeruginosa [23]) of the same molecule?
**A.** 32 µg/mL (≈ 99.3 µM)

**Q.** What about the Ratio (Staphylococcus aureus [24]) of the same molecule?
**A.** <=2

**Q.** What about the Ratio (Staphylococcus aureus [25]) of the same molecule?
**A.** <=2

**Q.** What about the Ratio (Enterococcus faecium [26]) of the same molecule?
**A.** <3

**Q.** And the Ratio (Acinetobacter baumannii [27])?
**A.** >=1

**Q.** What about the Ratio (Acinetobacter baumannii [28]) of the same molecule?
**A.** >=1

**Q.** And the Ratio (Acinetobacter baumannii [29])?
**A.** >=1

**Q.** And the Ratio (Acinetobacter baumannii [30])?
**A.** >=1

**Q.** What about the Ratio (Escherichia coli [31]) of the same molecule?
**A.** >=1

**Q.** And the Ratio [32]?
**A.** > 1

**Q.** And the Ratio (Klebsiella pneumoniae [33])?
**A.** >=1

**Q.** What about the Ratio (Salmonella enteritidis [34]) of the same molecule?
**A.** >=1

**Q.** And the Ratio (Salmonella enteritidis [35])?
**A.** >=1

**Q.** And the Ratio (Salmonella typhimurium)?
**A.** >=1

**Q.** And the Ratio (Shigella flexneri [36])?
**A.** >=1

**Q.** What about the Ratio (Pseudomonas aeruginosa [37]) of the same molecule?
**A.** >=1

**Q.** And the Ratio (Pseudomonas aeruginosa [38])?
**A.** >=1

**Q.** What about the Ratio (Pseudomonas aeruginosa [39]) of the same molecule?
**A.** >=1

**Q.** What about the Ratio (Clostridioides difficile [40]) of the same molecule?
**A.** <3

**Q.** What about the MIC (Acinetobacter baumannii [41]) of the same molecule?
**A.** 8 µg/mL (≈ 24.8 µM)

**Q.** And the MIC (Escherichia coli [42])?
**A.** 16 µg/mL (≈ 49.6 µM)

**Q.** And the MIC (Pseudomonas aeruginosa [43])?
**A.** 16 µg/mL (≈ 49.6 µM)
